{"source": "paper PMC6279743", "about": "“A small molecule ApoE4-targeted therapeutic candidate that normalizes sirtuin 1 levels and improves cognition in an Alzheimer’s disease mouse model” (Scientific Reports, 2018)", "key": {"[1]": {"tested_on": "SirT2 levels in N2a-E4 cells", "test": "SirT2 sandwich ELISA in N2a-E4 cells", "format": "cell-based, murine", "conditions": "A03 at 5 or 50 μM vs DMSO"}, "[2]": {"test": "Parallel Artificial Membrane Permeability Assay (PAMPA; IAM column)", "format": "in vitro ADME", "experimental": "We used L(+)tartaric acid to isolate the L-enantiomer salt and D(-) tartaric acid to isolate the D-enantiomer salt, followed by neutralization of the salt with NaOH and re-crystallization to obtain the enantiomers. Enantiomer abundance (Supplementary Fig. S4) was determined by HPLC using a Chiralpak IB column. Isopropanol (0.2% diethylamine)/hexanes was used for gradient elution with 5–50% isopropanol (0.2% diethylamine) for 11 min, a Chiralpak IB column, and with sample (1 μL, 1.25 mg/mL) injection, 220 nm wavelength detection, and a flow rate of 1 mL/min. […] The L-alanine analog co-elutes with enantiomer-1 while the D-alanine analog co-elutes with enantiomer-2. Analysis of the enantiomers and A03 in the Parallel Artificial Membrane Permeability Assay (PAMPA) was performed and is described in Supplementary Methods. […]\nPAMPA. An IAM.PC.DD2 Regis Technologies analytical (10 cm x 4.6 mm) column wherein phospholipid is bonded on 10 μm, 300 Å, spherical aminopropyl silica and end capped with C10 and C3 amides was used to determine membrane permeability of A03, E1 and E2. An isocratic method was used with a mobile phase comprising acetonitrile:PBS (pH 5.6) equal to 35:65, an injection volume of 5 µL, and a flow rate of 1 mL/min. The parameters determined are Tr = retention time of compound; KIAM= (Tr-T0)/T0; T0= is the delay time of the column, determined by use of 100 µg/mL citric acid) and was T0= 1.24 min; and (KIAM/MW4)*10-(10). The molecular weight of all three compounds was 255.74 g/mol. […]\nSupplementary Fig. S1. […] (a) Transient transfection with either\nApoE3 or E4 decreased SirT1 levels as compared to empty vector (Pc/DMSO), but the decrease was greater with […]"}}, "data": [{"smiles": "CC(N)C(=O)OC(C)(C)Cc1ccc(Cl)cc1", "note": "(stereo not shown) [A03, alaproclate]", "values": [{"measurement": "SirT2 (normalized to protein)", "setting": "[1]", "result": "not significantly altered"}, {"measurement": "retention time (Tr) in PAMPA", "setting": "[2]; IAM.PC.DD2 column, acetonitrile:PBS (pH 5.6) 35:65", "result": 3.31}, {"measurement": "KIAM", "setting": "[2]; KIAM = (Tr-T0)/T0, T0 = 1.24 min", "result": 1.67}, {"measurement": "(KIAM/MW^4) * 10^−(10)", "setting": "[2]; MW 255.74 g/mol", "result": 3.90}]}]}
